Data set [1] in a line: Inhibition of MEK-mediated phosphorylation of myelin basic protein by kinase cascade assay.
Data set [2] in a line: Inhibition of MEK-mediated ERK phosphorylation in PDGF-stimulated mouse K-Balb cells treated as single oral dose preincubated for 24 hrs before PDGF challenge by whole cell assay.
A short description of data set [3]: Inhibition of MEK-mediated ERK phosphorylation in PDGF-stimulated mouse K-Balb cells treated as single oral dose preincubated for 1 hr before PDGF challenge by whole cell assay.
The nature of data set [4]: Aqueous solubility in phosphate buffer at pH 6.5. The class given is physicochemical.
A short description of data set [5]: Inhibition of MEK-stimulated ERK phosphorylation in PDGF-stimulated mouse C26 cells treated as single oral dose before PDGF challenge by whole cell assay. The class given is cell-based.
The nature of data set [6]: Antitumor activity in mouse C26 cells xenografted mouse assessed as tumor growth delay at 300 mg/kg/treatment, po dosed thrice a day after 14 days relative to control. The format is functional.
Data set [7] in a line: Metabolic stability in human hepatocytes. The class given is ADME, cell-based, Liver, Hepatocyte.
Data set [8] is described as follows: Antitumor activity in mouse C26 cells xenografted mouse assessed as 50% reduction in tumor mass at 300 mg/kg/treatment, po dosed thrice a day after 14 days. The format is functional. Set-up: scale not given: the % may be the effect or the level left.
In data set [9] the test system is Mus musculus. In words: Inhibition of MEK-mediated ERK phosphorylation in mouse C26 cells xenografted mouse at 100 mg/kg, po after 1 day. The class given is functional. The following applies: C26, 24 h.
Data set [10] in a line: Permeability across human Caco-2 cells. The following applies: read-out: permeability. The class given is ADME, cell-based.
Data set [11] in a line: Antitumor activity in mouse C26 cells xenografted mouse assessed as tumor growth delay at 75 mg/kg/treatment, po dosed thrice a day after 14 days relative to control. The format is functional.
Data set [12] is described as follows: Distribution coefficient, log D of the compound. The note with it: octanol/water. The class given is physicochemical.
A short description of data set [13]: Metabolic stability in human liver microsomes. The format is ADME, Microsome.
Data set [14] in a line: Antitumor activity in mouse C26 cells xenografted mouse assessed as 100% reduction in tumor mass at 75 mg/kg/treatment, po dosed thrice a day after 14 days. The class given is functional. More on the design: scale not given: the % may be the effect or the level left.
The nature of data set [15]: Antitumor activity in mouse C26 cells xenografted mouse assessed as 100% reduction in tumor mass at 300 mg/kg/treatment, po dosed thrice a day after 14 days. The format is functional. More on the design: scale not given: the % may be the effect or the level left.
Data set [16] in a line: Antitumor activity in mouse C26 cells xenografted mouse assessed as 50% reduction in tumor mass at 75 mg/kg/treatment, po dosed thrice a day after 14 days. The format is functional. Set-up: scale not given: the % may be the effect or the level left.
Data set [17] in a line: Antitumor activity in mouse C26 cells xenografted mouse assessed as 50% reduction in tumor mass at 1.6 mg/kg/treatment, po qd after 14 days. More on the design: scale not given: the % may be the effect or the level left. The class given is functional.
A short description of data set [18]: Antitumor activity in mouse C26 cells xenografted mouse assessed as tumor growth delay at 25 mg/kg/treatment, po qd after 14 days relative to control. The format is functional.
In data set [19] the test system is Mus musculus. In words: Inhibition of MEK-mediated ERK phosphorylation in mouse C26 cells xenografted mouse at 12.5 mg/kg, po after 1 day. The class given is functional. The following applies: C26, 24 h.
A short description of data set [20]: Antitumor activity in mouse C26 cells xenografted mouse assessed as 100% reduction in tumor mass at 25 mg/kg/treatment, po qd after 14 days. The format is functional. Set-up: scale not given: the % may be the effect or the level left.
A short description of data set [21]: Antitumor activity in mouse C26 cells xenografted mouse assessed as minimal effective dose. The format is functional. The note with it: read-out: MED.
The nature of data set [22]: Antitumor activity in mouse C26 cells xenografted mouse assessed as 50% reduction in tumor mass at 25 mg/kg/treatment, po qd after 14 days. The format is functional. Set-up: scale not given: the % may be the effect or the level left.
Data set [23] can be described thus: Antitumor activity in mouse C26 cells xenografted mouse assessed as 100% reduction in tumor mass at 1.6 mg/kg/treatment, po qd after 14 days. The class given is functional. Set-up: scale not given: the % may be the effect or the level left.
The nature of data set [24]: Toxicity in mouse assessed as maximum tolerated dose. The format is organism-based. The following applies: in vivo.
Data set [25] can be described thus: Antitumor activity in mouse C26 cells xenografted mouse assessed as tumor growth delay at 1.6 mg/kg/treatment, po qd after 14 days relative to control. The format is functional.
The subject of data set [26] is Mus musculus. Briefly: Inhibition of MEK-mediated ERK phosphorylation in mouse C26 cells xenografted mouse at 50 mg/kg, po after 1 day. The class given is functional. The following applies: C26, 24 h.

In brackets after ≈: the same amount, converted by molar mass.

For the molecule `O=C(O)c1ccccc1Nc1cccc(I)c1`, in data set [1], the IC50 was greater than 10000 nM.

As for `CCONC(=O)c1ccc(F)c(F)c1Nc1ccc(I)cc1C`, the IC50 in data set [1] was determined as 20 nM; in [2], 47 nM; in data set [3], 4.18 nM.

In the case of `Cc1cc(I)ccc1Nc1cc(F)ccc1C(=O)O`, in [1], the IC50 was found to be 15 nM.

Take `CONC(=O)c1ccc(F)cc1Nc1ccc(I)cc1C`: the values for the IC50 in [1], in data set [2] and in [3] were 26 nM, 50 nM and 11.8 nM, respectively.

Turning to `O=C(NOCCO)c1ccc(F)c(F)c1Nc1ccc(I)cc1Cl`, the solubility in [4] is less than 1 µg/mL. This molecule yielded an IC50 in data set [5] of 3.5 nM.

As to `Cc1cc(I)ccc1Nc1c(C(=O)NOCC2CC2)ccc(F)c1F`, the IC50 in data set [1] was determined as 7 nM; in data set [2] it was 172 nM; in [3], 6.48 nM.

As to `Cc1cc(I)ccc1Nc1c(C(=O)NOCC2CC2)cc(Br)c(F)c1F`, the figures for the IC50 in data set [1], in data set [2] and in [3] were 7.8 nM, 113 nM and 26.4 nM, respectively.

On to `Cc1cc(I)ccc1Nc1c(C(=O)NOCC2CCCC2)cc(Br)c(F)c1F`, for which the IC50 in [1] was found to be 23 nM; in data set [2] it was 661 nM; in data set [3], 119 nM.

In the case of `Cc1cc(I)ccc1Nc1c(C(=O)NOCC2CCCCC2)cc(Br)c(F)c1F`, the IC50 in data set [1] amounted to 48 nM; in [2], 1780 nM; in data set [3], 1140 nM.

Turning to `CCCONC(=O)c1ccc(F)c(F)c1Nc1ccc(I)cc1C`, the IC50 in [1] came to 18 nM; in [2], 136 nM; in [3], 4.42 nM.

For `Cc1cc(I)ccc1Nc1c(C(=O)NOC(C)C)ccc(F)c1F`, the figures for the IC50 in [1], in data set [2] and in [3] were 35 nM, 232 nM and 8.18 nM, respectively.

With `Cc1cc(I)ccc1Nc1cc(F)ccc1C(=O)NOCC1CC1`, the IC50 came out at 27 nM in data set [1], 257 nM in [2] and 23.5 nM in data set [3].

As to `O=C(NOCC1CC1)c1ccc(F)cc1Nc1ccc(I)cc1Cl`, the IC50 in [1] was found to be 13 nM; in data set [2] it was 84.6 nM; in data set [3], 54.9 nM.

Take `Cc1cc(I)ccc1Nc1c(C(=O)O)ccc(F)c1F`: 5.8 nM corresponded to half-maximal inhibition in data set [1] (IC50).

In data set [1], `Cc1cc(I)ccc1Nc1ccc(F)cc1C(=O)O` registered an IC50 of 166 nM.

`Cc1cc(I)ccc1Nc1cc(Cl)ccc1C(=O)O`: in data set [1], the IC50 amounted to 554 nM.

In [1], `Cc1cc(I)ccc1Nc1ccccc1C(=O)O` showed an IC50 of 390 nM.

As to `O=C(O)c1ccccc1Nc1ccccc1I`, in data set [1], the IC50 is greater than 10000 nM.

`O=C(O)c1ccccc1Nc1ccc(I)cc1` registered an IC50 in data set [1] of 3050 nM.

Turning to `O=C(NOC[C@@H](O)CO)c1ccc(F)c(F)c1Nc1ccc(I)cc1F`, the solubility in data set [4] was determined as 255 µg/mL (≈ 529 µM).

As for `O=C(NOCC1CC1)c1ccc(F)c(F)c1Nc1ccc(I)cc1F`, the solubility in data set [4] is less than 1 µg/mL. The IC50 in [5] worked out at 1 nM.

On to `O=C(NO)c1ccc(F)cc1Nc1ccc(I)cc1Cl`, for which the figures for the IC50 in [1], in data set [2] and in [3] were 2.8 nM, 645 nM and 1.59 nM, respectively.

`Cc1cc(I)ccc1Nc1c(C(=O)NOCC2CCC2)cc(Br)c(F)c1F`: the IC50 in [1] amounted to 10 nM; in data set [2], 326 nM; in data set [3], 75.8 nM.

Regarding `Cc1cc(I)ccc1Nc1cc(F)ccc1C(=O)NO`, the IC50 in data set [1] came out at 7.96 nM; in data set [2], 624 nM; in data set [3] it was 3.55 nM.

For `Cc1cc(I)ccc1Nc1c(C(=O)O)cc(F)c(F)c1F`, in data set [1], half-maximal inhibition (IC50) required 6.8 nM.

`Cc1cc(I)ccc1Nc1cccc(F)c1C(=O)O` registered an IC50 in [1] of 518 nM.

`O=C(NOCC(O)CO)c1ccc(F)c(F)c1Nc1ccc(I)cc1Cl` (racemic) had an IC50 in data set [5] of 19 nM.

In data set [4], `O=C(NOCC(O)CO)c1ccc(F)c(F)c1Nc1ccc(I)cc1F` (racemic) displayed a solubility of 147 µg/mL (≈ 305 µM).

Consider `O=C(NOCC1CC1)c1ccc(F)c(F)c1Nc1ccc(I)cc1Cl` [CI-1040], for which the Activity in data set [6] is 12.7 days; in data set [8], 30%; in [11], 10.8 days; in data set [14] it was 10%; in [15], 70%; in [16], 20%. The figures for the half-life in data set [7] and in [13] were 1.67 h and 0.192 h, respectively. The molecule further gave an inhibition in vivo at 100 mg/kg in the data set with Mus musculus [9] of 14%. Besides, the Papp in data set [10] was 16.2 ×10⁻⁶ cm/s. The IC50 in data set [1] was found to be 2.3 nM; in data set [2] it was 35.4 nM; in data set [5] it was 35 nM; in data set [3], 2.45 nM. The molecule further displayed a logD in data set [12] greater than 5.

In the case of `O=C(NOC[C@H](O)CO)c1ccc(F)c(F)c1Nc1ccc(I)cc1F` [MIRDAMETINIB], the Activity stood at 0% in [17]; 15.4 days in [18]; 70% in data set [20]; 30% in data set [22]; 20% in [23]; 7.7 days in data set [25]. The half-life was 6.17 h in [7] and greater than 1.67 h in [13]. In the data set with Mus musculus [19], this molecule registered an inhibition in vivo at 12.5 mg/kg of 59%. Also, in [21], the minimal effective dose was found to be 1.6 mg/kg. In data set [4], this molecule showed a solubility of 190 µg/mL (≈ 394 µM). The Papp in data set [10] stood at 72.7 ×10⁻⁶ cm/s. Moreover, the MTD in [24] stood at 25 mg/kg. The molecule further gave a logD in data set [12] of 4.6. The inhibition in vivo at 50 mg/kg in the data set on Mus musculus [26] stood at 84%.

The values are drawn from ChEMBL document CHEMBL1152168 (Bioorg Med Chem Lett, 2008).
